Source: US20260297108A1, “NOVEL INHIBITORS OF PIKFYVE AND METHODS USING SAME” (priority 2023, published 2026)
Where two headings read alike, the source gives them in different places.

What was measured:
[1] = test system: MDCK cells; conditions: dog
[2] = test system: Influenza A; assay: Influenza A, inhibition of CPE; type: cell-based, influenza A strain California/07/09 (H1N1) pdm09; conditions: CC50 divided by EC50
[3] = test system: SARS-CoV2; assay: SARS-COV-2 IFA, inhibition of CPE (strain USA-WA1/2020); type: cell-based; conditions: CC50 divided by EC50
[4] = test system: Marburg; type: cell-based, Marburg virus (Angola strain)
[5] = test system: SARS-CoV2 (Delta); assay: SARS-COV-2 IFA, inhibition of CPE (Delta strain B.1.617); type: cell-based, SARS-COV-2 Delta strain B.1.617; conditions: CC50 divided by EC50
[6] = in vitro; conditions: monkey, vero cells
[7] = in vitro; conditions: dog, mdck
[8] = target: T1, PIKFYVE (Homo sapiens, UniProt Q9Y2I7); assay: KINOMEscan Kinase Assay (PIKFYVE inhibitory activity)
T1 sequence (Q9Y2I7 whole entry, the tested form may be a part): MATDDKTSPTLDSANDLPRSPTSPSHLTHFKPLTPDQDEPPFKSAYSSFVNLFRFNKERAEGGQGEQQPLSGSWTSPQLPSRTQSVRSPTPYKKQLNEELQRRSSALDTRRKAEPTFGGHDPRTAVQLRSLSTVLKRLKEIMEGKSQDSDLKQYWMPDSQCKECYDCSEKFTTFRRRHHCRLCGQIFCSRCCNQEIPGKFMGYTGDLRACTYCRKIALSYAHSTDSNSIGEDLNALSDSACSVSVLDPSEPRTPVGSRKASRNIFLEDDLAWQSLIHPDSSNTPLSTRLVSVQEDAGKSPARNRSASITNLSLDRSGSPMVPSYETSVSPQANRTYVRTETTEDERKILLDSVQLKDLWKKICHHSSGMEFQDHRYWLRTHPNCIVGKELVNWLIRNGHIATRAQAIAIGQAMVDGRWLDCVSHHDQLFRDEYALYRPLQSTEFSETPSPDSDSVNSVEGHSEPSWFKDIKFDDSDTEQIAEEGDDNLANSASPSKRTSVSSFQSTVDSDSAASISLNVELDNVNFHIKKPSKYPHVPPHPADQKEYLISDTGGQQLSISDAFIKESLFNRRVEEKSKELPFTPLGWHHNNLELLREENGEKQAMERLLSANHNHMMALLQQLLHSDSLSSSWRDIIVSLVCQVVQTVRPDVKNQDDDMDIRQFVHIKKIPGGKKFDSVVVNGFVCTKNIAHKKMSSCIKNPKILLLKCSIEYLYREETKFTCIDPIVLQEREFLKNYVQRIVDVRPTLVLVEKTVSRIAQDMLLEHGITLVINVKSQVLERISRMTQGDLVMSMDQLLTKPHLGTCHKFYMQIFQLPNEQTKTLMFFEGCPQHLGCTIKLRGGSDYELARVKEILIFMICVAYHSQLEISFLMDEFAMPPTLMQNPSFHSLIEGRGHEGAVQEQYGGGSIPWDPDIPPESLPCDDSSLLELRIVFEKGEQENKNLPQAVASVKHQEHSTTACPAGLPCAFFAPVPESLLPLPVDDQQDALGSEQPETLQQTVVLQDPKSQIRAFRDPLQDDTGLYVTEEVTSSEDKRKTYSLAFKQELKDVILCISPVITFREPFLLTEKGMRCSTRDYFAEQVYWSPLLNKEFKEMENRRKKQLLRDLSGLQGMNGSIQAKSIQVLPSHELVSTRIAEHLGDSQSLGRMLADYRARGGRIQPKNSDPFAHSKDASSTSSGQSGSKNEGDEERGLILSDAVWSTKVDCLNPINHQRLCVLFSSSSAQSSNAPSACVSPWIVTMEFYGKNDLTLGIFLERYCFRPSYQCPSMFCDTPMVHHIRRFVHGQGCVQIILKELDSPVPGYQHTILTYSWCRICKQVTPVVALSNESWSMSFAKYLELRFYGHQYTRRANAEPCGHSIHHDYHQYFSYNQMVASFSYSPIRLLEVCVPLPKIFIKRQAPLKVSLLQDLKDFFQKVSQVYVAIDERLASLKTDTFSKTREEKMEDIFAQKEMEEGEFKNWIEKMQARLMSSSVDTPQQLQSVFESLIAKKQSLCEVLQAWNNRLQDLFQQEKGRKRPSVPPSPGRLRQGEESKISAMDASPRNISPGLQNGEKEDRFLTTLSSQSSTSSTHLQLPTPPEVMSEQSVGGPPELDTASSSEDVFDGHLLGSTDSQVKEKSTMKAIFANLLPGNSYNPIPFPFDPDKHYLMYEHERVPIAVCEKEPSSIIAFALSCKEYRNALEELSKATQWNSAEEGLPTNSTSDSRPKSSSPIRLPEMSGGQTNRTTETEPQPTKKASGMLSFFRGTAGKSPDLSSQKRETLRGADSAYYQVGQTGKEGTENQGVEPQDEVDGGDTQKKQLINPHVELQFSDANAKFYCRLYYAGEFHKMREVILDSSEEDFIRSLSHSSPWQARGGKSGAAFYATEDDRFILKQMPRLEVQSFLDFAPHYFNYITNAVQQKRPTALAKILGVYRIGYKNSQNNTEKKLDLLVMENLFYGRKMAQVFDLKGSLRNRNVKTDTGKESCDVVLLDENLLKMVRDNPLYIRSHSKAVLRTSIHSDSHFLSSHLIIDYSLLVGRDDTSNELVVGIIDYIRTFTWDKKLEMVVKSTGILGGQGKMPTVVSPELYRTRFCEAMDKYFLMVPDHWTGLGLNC

[9] = target: T1, PIKFYVE; design: T7 phage display fusion, or alternatively DNA tag for qPCR (general KINOMEscan description); purchased Eurofins; conditions: background; cited from earlier work
[10] = test system: IL-12 and IL-23 synthesis; conditions: background; cited from earlier work
[11] = test system: enveloped viruses; conditions: background; cited from earlier work
[12] = read-out: PIKfyve Activity (PIKfyve % inhibition)
[13] = read-out: PIKfyve Activity (% inhibition)

| Structure (SMILES) | inhibition at 0.001 µM [8, 12] [%] | further results |
| --- | --- | --- |
| NC(=O)c1ncn([C@@H]2O[C@H](CO)[C@@H](O)[C@H]2O)n1 [ribavirin, reference compound] | – | CC50 [1]: > 1000 µM |
| Cc1cccc(-c2ccn(-c3nc(N4CCOCC4)c4sc(CN5CCN(S(C)(=O)=O)CC5)cc4n3)n2)c1 [Ex. 2, 4-(6-((4-(methylsulfonyl)piperazin-1-yl)methyl)-2-(3-(m-tolyl)-1H-pyrazol-1-yl)thieno[3,2-d]pyrimidin-4-yl)morpholine] | – | CC50 [1]: > 150 µM; Selectivity Index [2]: >150; Selectivity Index [3]: >150; Selectivity Index [4]: >15000; Selectivity Index [5]: >1000; CC50 at 24 h [6]: > 3000 nM; CC50 [7]: > 3000 nM |
| Cc1cccc(-c2ccn(-c3cc(N4CCOCC4)c4sc(C(=O)NC5COC5)cc4n3)n2)c1 [Ex. 179, 7-Morpholino-N-(oxetan-3-yl)-5-(3-(m-tolyl)-1H-pyrazol-1-yl)thieno[3,2-b]pyridine-2-carboxamide] | 52 to 100 | – |
| Cc1cccc(-c2ccn(-c3cc(N4CCOCC4)c4sc(C(=O)N5CCC(N6CC(F)C6)C5)cc4n3)n2)c1 (stereo not drawn) [Ex. 238] | 52 to 100 | – |
| Cc1cccc(-c2ccn(-c3cc(N4CCOCC4)c4sc(C(=O)NC5CCCN(C)C5)cc4n3)n2)c1 (stereo not drawn) [Ex. 187, N-(1-Methylpiperidin-3-yl)-7-morpholino-5-(3-(m-tolyl)-1H-pyrazol-1-yl)thieno[3,2-b]pyridine-2-carboxamide] | 52 to 100 | – |
| Cc1cccc(-c2nc(-c3cc(N4CCOCC4)c4sc(CN5CCN(S(C)(=O)=O)CC5)cc4n3)cs2)c1 [Ex. 244] | – | inhibition at 0.001 µM [8, 13]: 37% |
| Cc1cccc(-c2ccn(-c3nc(N4CCOCC4)c4nc(C(=O)N5CCN(C(C)C)CC5)[nH]c4n3)n2)c1 [Ex. 86] | 52 to 100 | – |
| Cc1cccc(/C=N/Nc2cc(N3CCOCC3)nc(OCCc3ccccn3)n2)c1 [Apilimod] | – | PIKFYVE inhibitory activity [9]: potent PIKFYVE inhibitory activity; inhibitor of IL-12 and IL-23 synthesis [10]: inhibitor of IL-12 and IL-23 synthesis; prevention of infection by enveloped viruses [11]: prevent infection by some of these enveloped viruses |
| Cc1cccc(-c2ccn(-c3cc(N4CCOCC4)c4nc(CO)[nH]c4n3)n2)c1 [Ex. 317] | 52 to 100 | – |
| Cc1cccc(-c2ccn(-c3cc(N4CCOCC4)c4sc(C(=O)N5CC(F)C(N6CCC6)C5)cc4n3)n2)c1 (stereo not drawn) [Ex. 239] | 52 to 100 | – |
| CC(=O)N1CCN(Cc2nc3c(N4CCOCC4)cc(-n4ccc(-c5cccc(C)c5)n4)nc3[nH]2)CC1 [Ex. 301] | 52 to 100 | – |
| Cc1cccc(-c2ccn(-c3nc(N4CCOCC4)c4nc(C(=O)N5CCN(S(C)(=O)=O)CC5)[nH]c4n3)n2)c1 [Ex. 78] | 52 to 100 | – |
| Cc1cccc(-c2ccn(-c3nc4[nH]c(C(=O)NC5COC5)nc4c(N4CCOCC4)c3F)n2)c1 [Ex. 310] | – | inhibition at 0.003 µM [8, 13]: 0% |
| Cc1cccc(-c2ccn(-c3cc(N4CCOCC4)c4sc(CO)cc4n3)n2)c1 [Ex. 313] | 52 to 100 | – |
| Cc1cccc(-c2ccn(-c3nc(N4CCOCC4)c4sc(/C=C/CN5CCN(C)CC5)cc4n3)n2)c1 [Ex. 180] | 52 to 100 | – |
| Cc1cccc(-c2ccn(-c3cc(N4CCOCC4)c4sc(C(=O)NC5CCN(C)CC5)cc4n3)n2)c1 [Ex. 186, N-(1-Methylpiperidin-4-yl)-7-morpholino-5-(3-(m-tolyl)-1H-pyrazol-1-yl)thieno[3,2-b]pyridine-2-carboxamide] | 52 to 100 | – |

| Structure (SMILES) | inhibition at 0.001 µM [8, 12] [%] | further results |
| --- | --- | --- |
| Cc1cccc(-c2ccn(-c3nc(N4CCOCC4)c4nc(CN5CCC(N(C)C)C(F)C5)n(C)c4n3)n2)c1 (stereo not drawn) [Ex. 171, 3-fluoro-N,N-dimethyl-1-((9-methyl-6-morpholino-2-(3-(m-tolyl)-1H-pyrazol-1-yl)-9H-purin-8-yl)methyl)piperidin-4-amine] | – | inhibition at 0.003 µM [8, 13]: 22% |
| Cc1cccc(-c2ccn(-c3nc(N4CCOCC4)c4sc(N(C)C5CCN(C)CC5)nc4n3)n2)c1 [Ex. 208, N-Methyl-N-(1-methylpiperidin-4-yl)-7-morpholino-5-(3-(m-tolyl)-1H-pyrazol-1-yl)thiazolo[4,5-d]pyrimidin-2-amine] | 52 to 100 | – |
| Cc1cccc(-c2ccn(-c3cc(N4CCOCC4)c4sc(C(=O)N5CCC(N6CCC6)C(F)C5)cc4n3)n2)c1 (stereo not drawn) [Ex. 236] | 52 to 100 | – |
| Cc1cccc(-c2ccn(-c3cc(N4CCOCC4)c4sc(C(=O)NC5CCN(C)C5)cc4n3)n2)c1 (stereo not drawn) [Ex. 200, N-(1-Methylpyrrolidin-3-yl)-7-morpholino-5-(3-(m-tolyl)-1H-pyrazol-1-yl)thieno[3,2-b]pyridine-2-carboxamide] | 52 to 100 | – |
| Cc1cccc(-c2ccn(-c3cc(N4CCOCC4)c4nc(CN5CCN(S(=O)(=O)C(C)C)CC5)[nH]c4n3)n2)c1 [Ex. 279] | 52 to 100 | – |
| Brc1ccn(-c2cc(N3CCOCC3)c3sc(CN4CCOCC4)cc3n2)n1 [Ex. 173, 4-(5-(3-Bromo-1H-pyrazol-1-yl)-2-(morpholinomethyl)thieno[3,2-b]pyridin-7-yl)morpholine] | – | inhibition at 0.001 µM [8, 13]: 18% |
| Cc1cccc(-c2ccn(-c3nc(N4CCOCC4)c4sc(NCCN5CCOCC5)nc4n3)n2)c1 [Ex. 202, 7-Morpholino-N-(2-morpholinoethyl)-5-(3-(m-tolyl)-1H-pyrazol-1-yl)thiazolo-[4,5-d]pyrimidin-2-amine] | 52 to 100 | – |
| Cc1cccc(-c2ccn(-c3nc4[nH]c(C(=O)N5CCC(N6CCC6)C(F)C5)nc4c(N4CCOCC4)c3F)n2)c1 (stereo not drawn) [Ex. 312] | – | inhibition at 0.003 µM [8, 13]: 10% |
| Cc1cccc(-c2ccn(-c3nc(N4CCOCC4)c4nc(C(=O)N5CCN(S(C)(=O)=O)CC5)n(C)c4n3)n2)c1 [Ex. 287] | 52 to 100 | – |
| Cc1cccc(-c2ccn(-c3cc(N4CCOCC4)c4sc(CN5CCN(S(C)(=N)=O)CC5)cc4n3)n2)c1 (stereo not drawn) [Ex. 284] | 52 to 100 | – |
| Cc1cccc(-c2ccn(-c3nc4[nH]c(C(=O)NC5CC5)nc4c(N4CCOCC4)c3F)n2)c1 [Ex. 307] | – | inhibition at 0.003 µM [8, 13]: 0% |
| Cc1cccc(-c2nc(-c3nc(N4CCOCC4)c4sc(CN5CCN(S(C)(=O)=O)CC5)cc4n3)cs2)c1 [Ex. 243] | 52 to 100 | – |
| Cc1cccc(-c2ccn(-c3cc(N4CCOCC4)c4sc(C(N)=O)cc4n3)n2)c1 [Ex. 293] | 52 to 100 | – |
| Cc1cccc(-c2ccn(-c3cc(N4CCOCC4)c4sc(C(=O)NC5CN(C)C5)cc4n3)n2)c1 [Ex. 201, N-(1-Methylazetidin-3-yl)-7-morpholino-5-(3-(m-tolyl)-1H-pyrazol-1-yl)thieno[3,2-b]pyridine-2-carboxamide] | 52 to 100 | – |
| CC(=O)NC1CCN(Cc2nc3c(N4CCOCC4)cc(-n4ccc(-c5cccc(C)c5)n4)nc3[nH]2)CC1 [Ex. 302] | 52 to 100 | – |
